Laboratory results reported in patent US10618935B2, “Antibody-drug conjugate (ADC) and method for forming the same” (Industrial Technology Research Institute, priority 2015, dated 2020).
Square brackets hold non-standard residues; d marks the D form. Peptide text beside a SMILES is read from it. * marks the point of attachment. Dolaproine = CO[C@@H]([C@@H]1CCCN1)[C@@H](C)C(=O)O; Dil = CC[C@H](C)[C@H](NC)[C@@H](CC(=O)O)OC; X2 = C[C@@H](N*)[C@@H](O)c1ccccc1; NMeV = CN[C@H](C(=O)O)C(C)C

Experiments:
FaDu cells = assay: Tumor growth inhibition test, FaDu subcutaneous tumor in C.B-17 SCID mice; assay type: in vivo; conditions: Day 8-29; 0.1 mg/kg intravenously once at Day 8; n=6
Description: (§1) 1×10^6 of FaDu cells were subcutaneous injected to C.B-17 SCID mice at Day 0. The length and width of the tumor were measured and the tumor size was calculated by (length×width×width×½) (mm^3) and recorded. […] Tumor growth and body weight of the mice were observed twice every week.

[1] = Body weight and clinical symptoms in the tumor growth inhibition test; conditions: FIG. 20
Description: as §1

CC[C@H](C)[C@@H]([C@@H](CC(=O)N1CCC[C@H]1[C@H](OC)[C@@H](C)C(=O)N[C@H](C)[C@@H](O)c1ccccc1)OC)N(C)C(=O)[C@@H](NC(=O)[C@@H](NC)C(C)C)C(C)C [MMAE] (H-[NMeV]V[Dil][Dolaproine]-X2)
TGI (%) ± SEM (FaDu cells): 12 ± 6%
weight loss or abnormal clinical symptoms after drug administration [1]: no weight losing or other significant abnormal clinical symptoms occurred

CC[C@H](C)C([C@@H](CC(=O)N1CCC[C@H]1[C@H](OC)[C@@H](C)C(=O)NC(Cc1ccccc1)C(=O)NCCc1ccc(N)cc1)OC)N(C)C(=O)C(NC(=O)[C@H](C(C)C)N(C)C)C(C)C (stereo partly shown) [APEA-AF]
TGI (%) ± SEM (FaDu cells): 11 ± 17%
weight loss or abnormal clinical symptoms after drug administration [1]: no weight losing or other significant abnormal clinical symptoms occurred
